Data reported in ChEMBL document CHEMBL5550084, “Ferroptosis and its modulators: A raising target for cancer and Alzheimer's disease” (Bioorg Med Chem, 2024).

Tests used:
[1] = Growth inhibition of human BJeLR cell by Trypan blue staining based analysis; format: toxicity; details: BJeLR cells
[2] = molecular target: T1, Cystine/glutamate transporter (Homo sapiens, UniProt Q9UPY5); test: Inhibition of Xc- in human HT-1080 cells assessed as decrease in glutamate release incubated for 2 hrs by Amplex red assay; format: cell-based
T1 sequence (Q9UPY5 whole entry): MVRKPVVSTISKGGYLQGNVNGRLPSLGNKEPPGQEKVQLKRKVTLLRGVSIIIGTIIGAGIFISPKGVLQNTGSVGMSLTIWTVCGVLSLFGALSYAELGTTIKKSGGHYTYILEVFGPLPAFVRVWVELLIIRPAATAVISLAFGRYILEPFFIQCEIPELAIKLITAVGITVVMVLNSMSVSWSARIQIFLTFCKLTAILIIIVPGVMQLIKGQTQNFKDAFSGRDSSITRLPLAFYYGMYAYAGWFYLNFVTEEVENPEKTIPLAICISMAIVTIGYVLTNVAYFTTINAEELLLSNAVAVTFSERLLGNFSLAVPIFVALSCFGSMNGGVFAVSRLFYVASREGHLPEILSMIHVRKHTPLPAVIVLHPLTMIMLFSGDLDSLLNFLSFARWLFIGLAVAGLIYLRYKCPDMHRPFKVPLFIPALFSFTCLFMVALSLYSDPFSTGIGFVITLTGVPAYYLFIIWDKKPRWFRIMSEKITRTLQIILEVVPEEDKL

Row | IC50 [2] [nM] | Structure (SMILES) | GI50 [1] [nM]
1 |  | CC(C)Oc1ccc(CN2CCNCC2)cc1-n1c(CN2CCN(C(=O)COc3ccc(Cl)cc3)CC2)nc2ccccc2c1=O | 0.9
2 |  | CC(C)Oc1ccc(C=O)cc1-n1c(CN2CCN(C(=O)COc3ccc(Cl)cc3)CC2)nc2ccccc2c1=O | 8
3 | 300 | CC(C)Oc1ccc(C(=O)CN2CCN(C)CC2)cc1-n1c(CN2CCN(C(=O)COc3ccc(Cl)cc3)CC2)nc2ccccc2c1=O | 474
4 | 10 | CC(C)Oc1ccc(C(=O)CN2CCOCC2)cc1-n1c(CN2CCN(C(=O)COc3ccc(Cl)cc3)CC2)nc2ccccc2c1=O | 427
5 |  | CC(C)Oc1ccc(CN2CCOCC2)cc1-n1c(CN2CCN(C(=O)COc3ccc(Cl)cc3)CC2)nc2ccccc2c1=O | 0.13
6 |  | CC(C)Oc1ccncc1-n1c(CN2CCN(C(=O)COc3ccc(Cl)cc3)CC2)nc2ccccc2c1=O | > 10
7 |  | CCOc1ccccc1-n1c(C(C)N2CCN(C(=O)COc3ccc(Cl)cc3)CC2)nc2ccccc2c1=O (centres undefined) [ERASTIN] | 1.7
